# Data as given in patent US7674816B2, “Substituted melatonin derivatives, process for their preparation, and methods of use” (Abraxis BioScience, LLC, priority 2003, dated 2010).
# Where two headings read alike, the source gives them in different places.
# What was measured:
# [1] = system: GABAA agonist site; assay: GABAA agonist site competitive binding (3H-GABA); conditions: bovine hippocampus
# Text: (§1) The binding profile of exemplary inventive compounds to neurotransmitter receptor sites is set forth below in Table 1. The characterization of the receptors, isolation of the membrane, and enzyme assay have been described in detail previously (see, e.g., Cole et al., Life Sci., 35, 1755 (1984), Lawrence et al., J. Neurochem., 45(3), 798 (1985), Sweetnam et al., Mol. Pharmacology, 29, 299 (1986), Zarkovsky et al., Neuropharmacology, 26 (7A), 737 (1987), Li et al., Eur. J. Pharmacology, 413, 63 (2001), and Markela et al., Mol. Pharmacology, 52, 380 (1997)).
# (§2) The melatonin binding site on GABAA was defined using a series of competitive binding assays. Frozen bovine hippocampus was thawed and homogenized in 40 volumes of ice-cold 0.32 M sucrose. The suspension was centrifuged at 1000×g for 10 minutes at 4° C. The pellet was washed twice in assay buffer and reacted with radioactive ligand in presence or absence of melatonin at 10^−4 M final concentration. The amount of radioactivity remained on the Whatman filter following filtration of the reaction mix and two washes with assay buffer was determined using a liquid scintillation counter. Inhibition of radioactive ligand binding by melatonin represents the competitive binding of melatonin to the same site as the radioactive ligand. GABAA agonist site, GABAA α-1 site, GABAA α-5 site, GABAA α-6 site, and GABAA Cl channel were assayed using ^3H-GABA, ^3H-flunitrazepam, ^3H-RY80, ^3H-Ro 15-4513, and ^3H-TBOB.
# [2] = system: GABAA α-1 site; assay: GABAA alpha 1 site competitive binding (3H-flunitrazepam); conditions: Conc. 1.0E−4 M, bovine hippocampus
# Text: as §1, §2
# [3] = system: GABAA α-6 site; assay: GABAA alpha 6 site competitive binding (3H-Ro 15-4513); conditions: Conc. 1.0E−4 M, bovine hippocampus
# Text: as §1, §2
# [4] = system: GABAA Cl channel; assay: GABAA Cl channel, TBOB site competitive binding (3H-TBOB), single concentration; conditions: Conc. 1.0E−4 M, bovine hippocampus
# Text: as §1, §2
# [5] = system: rats; conditions: cited from earlier work; for ED95 (95% CI, for loss of righting reflex): intravenous
# [6] = system: GABAA α-1 site; assay: GABAA alpha 1 site competitive binding (3H-flunitrazepam); conditions: Conc. 1.0E−3 M, bovine hippocampus
# [7] = system: GABAA α-6 site; assay: GABAA alpha 6 site competitive binding (3H-Ro 15-4513); conditions: Conc. 1.0E−3 M, bovine hippocampus
# [8] = system: GABAA Cl channel; assay: GABAA Cl channel, TBOB site competitive binding (3H-TBOB), single concentration; conditions: Conc. 1.0E−3 M, bovine hippocampus
# [9] = molecular target: GABAA Cl channel; assay: GABAA Cl channel binding constant determination (3H-TBOB, increasing concentration, Hill plots); conditions: bovine hippocampus
# Method: (§3) The suspension was centrifuged at 1000×g for 10 minutes at 4° C. The pellet was washed twice in assay buffer and reacted with radioactive ligand in presence or absence of […] at 10^−4 M final concentration. The amount of radioactivity remained on the Whatman filter following filtration of the reaction mix and two washes with assay buffer was determined using a liquid scintillation counter. Inhibition of radioactive ligand binding by melatonin represents the competitive binding of melatonin to the same site as the radioactive ligand. GABAA Cl channel were assayed using ^3H-TBOB. The binding was carried out in the presence of increasing concentration of melatonin and the KD determined graphically using the Hill plots. In vivo hypnotic activity was determined as follow. Drugs solubilized in DMSO were administered to rats by tail vein injection (N=5 rats per group). A dose level of 28 μmol/kg (5 mg/kg for propofol) was used to compensate for differences in molecular weight of the analogs. Anesthetic activity in vivo was determined as time to recovery of righting reflex following administration of the compounds.
# [10] = system: rats; assay: In vivo hypnotic activity: time to recovery of righting reflex after tail vein injection; conditions: 28 μmol/kg (5 mg/kg for propofol), in DMSO
# Method: as §3
# [11] = system: Dawley rats; assay: Response to tail clamping after single i.v. bolus; format: in vivo; conditions: single i.v. bolus 15 mg/kg, in 10% ethanol/16% Cremophor
# Method: This example illustrates the tail clamping with melatonin analogs. Dawley rats (Harlan, Indianapolis, Ind., USA) were weighed and anaesthetized with isoflurane. In all rats, the right jugular vein was cannulated with a heparinized saline filled catheter. Studies were carried out 5-7 days after surgery.
# Tail clamp was tested by application of a rubber-clad vascular clamp (22 cm DeBakey) across the proximal third of the tail. Purposeful movement of the hind limbs and/or the head was noted as a positive response.
smiles,measurement,setting,value
"CC(C)c1cccc(C(C)C)c1O [2,6-Diisopropylphenol, reference compound]","Specific binding, GABAA Agonist site (inhibition of radioactive ligand binding)",[1]; Conc. 1.0E−4 M,12.48%
same,"Specific binding, GABAA Alpha 1 site (inhibition of radioactive ligand binding)",[2],−14.31%
same,"Specific binding, GABAA Alpha 6 site (inhibition of radioactive ligand binding)",[3],−0.89%
same,"Specific binding, GABAA Ion Channels Cl−, TBOB site (inhibition of radioactive ligand binding)",[4],117.52%
same,Effect of bolus injection on righting reflex,[5]; bolus injection of 10 mg/kg,immediate loss of righting reflex
same,"ED95 (95% CI, for loss of righting reflex)",[5],14.9 mg/kg
"COc1ccc2[nH]c(-c3cccc(C(F)(F)F)c3)c(CCNC(C)=O)c2c1 [2-(3-Trifluoromethylphenyl) melatonin, N-(2-(2-(3-trifluoromethylphenyl)-5-methoxy-1H-indol-3-yl)ethyl)acetamide]","Specific binding, GABAA Alpha 1 site (inhibition of radioactive ligand binding)",[2],15.61%
same,"Specific binding, GABAA Alpha 6 site (inhibition of radioactive ligand binding)",[3],25.39%
same,"Specific binding, GABAA Ion Channels Cl−, TBOB site (inhibition of radioactive ligand binding)",[4],79.60%
"COc1ccc2[nH]c(-c3ccc(F)cc3)c(CCNC(C)=O)c2c1 [2-(4-Fluorophenyl) melatonin, N-(2-(2-(4-fluorophenyl)-5-methoxy-1H-indol-3-yl)ethyl)acetamide]","Specific binding, GABAA Alpha 1 site (inhibition of radioactive ligand binding)",[2],28.80%
same,"Specific binding, GABAA Alpha 6 site (inhibition of radioactive ligand binding)",[3],20.76%
same,"Specific binding, GABAA Ion Channels Cl−, TBOB site (inhibition of radioactive ligand binding)",[4],110.10%
"COc1ccc2[nH]c(-c3ccc(C)cc3)c(CCNC(C)=O)c2c1 [2-(4-Methylphenyl) melatonin, N-(2-(5-methoxy-2-p-tolyl-1H-indol-3-yl)ethyl)acetamide]","Specific binding, GABAA Alpha 1 site (inhibition of radioactive ligand binding)",[2],10.28%
same,"Specific binding, GABAA Alpha 6 site (inhibition of radioactive ligand binding)",[3],32.93%
same,"Specific binding, GABAA Ion Channels Cl−, TBOB site (inhibition of radioactive ligand binding)",[4],101.46%
"COc1ccc2[nH]c(-c3ccc(C(F)(F)F)cc3)c(CCNC(C)=O)c2c1 [2-(4-Trifluoromethylphenyl) melatonin, N-(2-(2-(4-trifluoromethylphenyl)-5-methoxy-1H-indol-3-yl)ethyl)acetamide]","Specific binding, GABAA Alpha 1 site (inhibition of radioactive ligand binding)",[2],8.11%
same,"Specific binding, GABAA Alpha 6 site (inhibition of radioactive ligand binding)",[3],25.87%
same,"Specific binding, GABAA Ion Channels Cl−, TBOB site (inhibition of radioactive ligand binding)",[4],103.23%
"COc1ccc2[nH]c(Br)c(CCNC(C)=O)c2c1 [2-Bromomelatonin, N-(2-(2-bromo-5-methoxy-1H-indol-3-yl)ethyl)acetamide]","Specific binding, GABAA Agonist site (inhibition of radioactive ligand binding)",[1]; Conc. 1.0E−3 M,−8.55%
same,"Specific binding, GABAA Alpha 1 site (inhibition of radioactive ligand binding)",[6],8.35%
same,"Specific binding, GABAA Alpha 6 site (inhibition of radioactive ligand binding)",[7],−12.69%
same,"Specific binding, GABAA Ion Channels Cl−, TBOB site (inhibition of radioactive ligand binding)",[8],51.87%
"COc1ccc2[nH]c(-c3ccccc3)c(CCNC(C)=O)c2c1 [2-Phenylmelatonin, N-(2-(5-methoxy-2-phenyl-1H-indol-3-yl)ethyl)acetamide]","Specific binding, GABAA Agonist site (inhibition of radioactive ligand binding)",[1]; Conc. 1.0E−4 M,0.33%
same,"Specific binding, GABAA Alpha 1 site (inhibition of radioactive ligand binding)",[2],35.16%
same,"Specific binding, GABAA Alpha 6 site (inhibition of radioactive ligand binding)",[3],12.48%
same,"Specific binding, GABAA Ion Channels Cl−, TBOB site (inhibition of radioactive ligand binding)",[4],84.28%
"CC(=O)NCCc1c(Cc2ccccc2)[nH]c2ccccc12 [Luzindole, reference compound]","Specific binding, GABAA Agonist site (inhibition of radioactive ligand binding)",[1]; Conc. 1.0E−4 M,5.84%
same,"Specific binding, GABAA Alpha 1 site (inhibition of radioactive ligand binding)",[2],5.09%
same,"Specific binding, GABAA Alpha 6 site (inhibition of radioactive ligand binding)",[3],4.93%
same,"Specific binding, GABAA Ion Channels Cl−, TBOB site (inhibition of radioactive ligand binding)",[4],47.55%
"COc1ccc2[nH]cc(CCNC(C)=O)c2c1 [Melatonin, N-acetyl-5-methoxytryptamine]","Specific binding, GABAA Agonist site (inhibition of radioactive ligand binding)",[1]; Conc. 1.0E−3 M,−3.11%
same,"Specific binding, GABAA Alpha 1 site (inhibition of radioactive ligand binding)",[6],39.80%
same,"Specific binding, GABAA Alpha 6 site (inhibition of radioactive ligand binding)",[7],17.50%
same,"Specific binding, GABAA Ion Channels Cl−, TBOB site (inhibition of radioactive ligand binding)",[8],39.44%
same,Effect of bolus injection on righting reflex,[5]; bolus injection of 312 mg/mL,immediate loss of righting reflex
"CC(C)c1cccc(C(C)C)c1O [drawing 16, reference compound]",IC50,[9],4.86 µM
same,"Anesthesia Activity (Time to awakening, min)",[10],20.8 min
COc1ccc2[nH]c(-c3ccccc3)c(CCNC(C)=O)c2c1 [drawing 18],IC50,[9],108 µM
COc1ccc2[nH]c(-c3ccc(F)cc3)c(CCNC(C)=O)c2c1 [drawing 19],IC50,[9],27.9 µM
same,"Anesthesia Activity (Time to awakening, min)",[10],3.0 min
COc1ccc2[nH]c(-c3ccc(C(F)(F)F)cc3)c(CCNC(C)=O)c2c1 [drawing 20],IC50,[9],13.1 µM
same,"Anesthesia Activity (Time to awakening, min)",[10],20.8 min
COc1ccc2[nH]c(-c3ccc(C)cc3)c(CCNC(C)=O)c2c1 [drawing 21],IC50,[9],33.9 µM
same,"Anesthesia Activity (Time to awakening, min)",[10],4.8 min
COc1ccc2[nH]c(-c3cccc(C(F)(F)F)c3)c(CCNC(C)=O)c2c1 [drawing 22],"Anesthesia Activity (Time to awakening, min)",[10],3.8 min
COc1ccc(-c2[nH]c3ccc(OC)cc3c2CCNC(C)=O)cc1 [drawing 23],IC50,[9],19.9 µM
same,"Anesthesia Activity (Time to awakening, min)",[10],3.5 min
COc1ccc2[nH]c(-c3ccc(C(C)(C)C)cc3)c(CCNC(C)=O)c2c1 [drawing 24],"Anesthesia Activity (Time to awakening, min)",[10],20.3 min
"COc1ccc2[nH]c(-c3ccccc3)c(CCNC(C)=O)c2c1 [drawing 25, reference compound]",# lack of response rat/tested rat,[11],0/5
same,"Time of lack of response to the tail clamp, min",[11],No effect
COc1ccc2[nH]c(-c3ccc(F)cc3)c(CCNC(C)=O)c2c1 [drawing 26],# lack of response rat/tested rat,[11],5/5
same,Time of lack of response to the tail clamp,[11],2 min
COc1ccc2[nH]c(-c3ccc(C(F)(F)F)cc3)c(CCNC(C)=O)c2c1 [drawing 27],# lack of response rat/tested rat,[11],4/5
same,Time of lack of response to the tail clamp,[11],15 min
COc1ccc2[nH]c(-c3cccc(C(F)(F)F)c3)c(CCNC(C)=O)c2c1 [drawing 28],# lack of response rat/tested rat,[11],5/5
same,Time of lack of response to the tail clamp,[11],5 min
COc1ccc2[nH]c(-c3ccc(C(C)(C)C)cc3)c(CCNC(C)=O)c2c1 [drawing 29],# lack of response rat/tested rat,[11],5/5
same,Time of lack of response to the tail clamp,[11],5 min
CCCC(C)C1(CC)C(=O)NC(=S)NC1=O (centres unmarked) [thiopental],"ED95 (95% CI, for loss of righting reflex)",[5],8 mg/kg
